Results on 11 compounds are retold here after patent US20240083857A1, “2-Methyl-Quinazolines” (Bayer Pharma Aktiengesellschaft, priority 2017, published 2024).

Like-named read-outs stand apart in the source and are kept apart here.

The target of assay [1] is Epidermal Growth Factor Receptor (EGFR) (Homo sapiens (Human), UniProt P00533). In words: EGFR kinase assay (TR-FRET). It is filed as biochemical. The text has this:
EGFR inhibitory activity of compounds of the present invention was quantified employing the TR-FRET based EGFR assay as described in the following paragraphs.
Epidermal Growth Factor Receptor (EGFR) affinity purified from human carcinoma A431 cells (Sigma-Aldrich, #E3641) was used as kinase. As substrate for the kinase reaction the biotinylated peptide biotin-Ahx-[…] (SEQ ID NO 5) (C-terminus in amid form) was used which can be purchased e.g. form the company Biosyntan GmbH (Berlin-Buch, Germany).
For the assay 50 nL of a 100 fold concentrated solution of the test compound in DMSO was pipetted into a black low volume 384 well microtiter plate (Greiner Bio-One, Frickenhausen, Germany), 2 μL of a solution of EGFR in aqueous assay buffer [50 mM Hepes/HCl pH 7.0, 1 mM MgCl2, 5 mM MnCl2, 0.5 mM activated sodium ortho-vanadate, 0.005% (v/v) Tween-20]were added and the mixture was incubated for 15 min at 22° C. to allow pre-binding of the test compounds to the enzyme before the start of the kinase reaction. […] The concentration of EGFR was adjusted depending of the activity of the enzyme lot and was chosen appropriate to have the assay in the linear range, typical concentration were about 3 U/ml. The reaction was stopped by the addition of 5 μl of a solution of HTRF detection reagents (0.1 μM streptavidine-XL665 [Cis Biointernational] and 1 nM PT66-Tb-Cryptate, an terbium-cryptate labelled anti-phospho-tyrosine antibody from Cis Biointernational [instead of the PT66-Tb-cryptate PT66-Eu-Chelate from Perkin Elmer can also be used]) in an aqueous EDTA-solution (80 mM EDTA, 0.2% (w/v) bovine serum albumin in 50 mM HEPES pH 7.5).
The resulting mixture was incubated 1 h at 22° C. to allow the binding of the biotinylated phosphorylated peptide to the streptavidine-XL665 and the PT66-Eu-Chelate. Subsequently the amount of phosphorylated substrate was evaluated by measurement of the resonance energy transfer from the PT66-Tb-Cryptate to the streptavidine-XL665. Therefore, the fluorescence emissions at 620 nm and 665 nm after excitation at 337 nm were measured in a HTRF reader, e.g. a Pherastar (BMG Labtechnologies, Offenburg, Germany) or a Viewlux (Perkin-Elmer). The ratio of the emissions at 665 nm and at […] was taken as the measure for the amount of phosphorylated substrate.

Assay [2] concerns the target human SOS1 (loading of human K-Ras^G12C-GDP with fluorescent GTP-analog) (Homo sapiens, UniProt Q07889). The assay is described as follows: Biochemical assay 3: K-Ras^G12C activation assay by hSOS1 (HTRF). Background: TR-FRET usually uses a lanthanide donor and a delayed reading to cut background.
For assay [3], the target named is K-Ras^G12C : hSOS1 interaction (Homo sapiens, UniProt Q07889). In words: Biochemical assay 1: K-Ras^G12C interaction assay with hSOS1 (HTRF). It is filed as binding.
In assay [4] the target is human SOS1 (nucleotide exchange of K-Ras^G12C) (Homo sapiens, UniProt Q07889). The assay is described as follows: Biochemical assay 2: K-Ras^G12C activation assay by hSOS1 at high GTP concentration (HTRF). As to conditions: E-notation values; unit inferred; 50 μM GTP; read-out: Assay 2 (KRAS-Activation, high GTP) IC50.
[5] abbreviates: values given in μM, read-out: EGFR kinase inhibition IC50.
Setting [6] is: no GTP, read-out: Assay 3 (KRAS-Activation by SOS no GTP) activity expressed as IC50.
Where [7] appears, read: read-out: Assay 1 (KRAS-SOS Interaction) activity expressed as IC50.
Setting [8] is: E-notation values, unit inferred, read-out: EGFR-assay IC50.
The mark [9] stands for this setting: E-notation values, unit inferred, read-out: Assay 3 (KRAS-Activation) IC50.

Sequence of Epidermal Growth Factor Receptor (EGFR) (P00533 25-1210): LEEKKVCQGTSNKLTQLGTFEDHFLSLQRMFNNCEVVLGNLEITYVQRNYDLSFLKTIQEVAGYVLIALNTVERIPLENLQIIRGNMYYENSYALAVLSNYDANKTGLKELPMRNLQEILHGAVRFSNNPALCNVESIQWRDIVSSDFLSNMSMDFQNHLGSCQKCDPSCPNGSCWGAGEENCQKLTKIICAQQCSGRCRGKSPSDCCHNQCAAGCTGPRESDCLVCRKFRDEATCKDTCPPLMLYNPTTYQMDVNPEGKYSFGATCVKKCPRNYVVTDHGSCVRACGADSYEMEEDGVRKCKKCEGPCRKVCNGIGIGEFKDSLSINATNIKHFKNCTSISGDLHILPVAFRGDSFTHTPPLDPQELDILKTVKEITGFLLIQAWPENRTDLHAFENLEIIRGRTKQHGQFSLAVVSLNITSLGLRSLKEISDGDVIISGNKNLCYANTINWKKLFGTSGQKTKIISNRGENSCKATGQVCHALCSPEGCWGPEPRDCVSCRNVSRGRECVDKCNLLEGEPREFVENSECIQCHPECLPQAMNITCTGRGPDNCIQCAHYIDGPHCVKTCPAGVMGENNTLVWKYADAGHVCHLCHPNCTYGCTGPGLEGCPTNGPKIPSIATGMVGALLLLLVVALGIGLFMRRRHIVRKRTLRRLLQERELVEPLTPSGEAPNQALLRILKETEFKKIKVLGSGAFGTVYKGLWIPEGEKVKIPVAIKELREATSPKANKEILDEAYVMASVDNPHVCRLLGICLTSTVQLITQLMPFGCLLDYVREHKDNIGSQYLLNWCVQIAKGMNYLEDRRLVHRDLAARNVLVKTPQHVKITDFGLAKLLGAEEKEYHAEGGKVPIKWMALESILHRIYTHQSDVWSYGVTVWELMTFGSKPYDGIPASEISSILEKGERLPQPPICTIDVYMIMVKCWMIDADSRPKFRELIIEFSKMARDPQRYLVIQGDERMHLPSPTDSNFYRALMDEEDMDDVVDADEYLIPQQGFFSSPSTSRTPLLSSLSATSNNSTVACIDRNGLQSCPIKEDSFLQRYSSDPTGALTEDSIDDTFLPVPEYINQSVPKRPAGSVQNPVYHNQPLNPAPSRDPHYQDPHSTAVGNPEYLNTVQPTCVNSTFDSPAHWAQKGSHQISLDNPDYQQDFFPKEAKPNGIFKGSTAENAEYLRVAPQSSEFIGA

Turning to `COc1cc2nc(C)nc(NC(C)c3ccc(Br)s3)c2cc1OC` (stereo not drawn) [Example 209, N-[1-(5-bromothiophen-2-yl)ethyl]-6,7-dimethoxy-2-methylquinazolin-4-amine], the IC50 – broadly, the point on the concentration scale where inhibition reaches its midpoint – in assay [1] (setting [5]) was over 20 µM; in assay [2] (setting [6]) it was 4.95 µM; in assay [3] (setting [7]), 1.08 µM.

For `Cc1nc(NC(C)c2ccc(-c3ccccc3CN(C)C)s2)c2cc([N+](=O)[O-])ccc2n1` (stereo not drawn) [Example 421, N-[1-(5-{2-[(dimethylamino)methyl]phenyl}thiophen-2-yl)ethyl]-2-methyl-6-nitroquinazolin-4-amine], the IC50 in assay [4] was 0.222 µM; in assay [1] (setting [8]) it was over 20 µM; in assay [3] (E-notation values, unit inferred, read-out: Assay 1 (KRAS-SOS interaction) IC50) it was 0.145 µM.

As to `COc1cc2nc(C)nc(NC(C)c3ccc(-c4ccc(Cl)cc4CNC(=O)OC(C)(C)C)s3)c2cc1OC` (stereo not drawn) [Example 449, tert-butyl [5-chloro-2-(5-{1-[(6,7-dimethoxy-2-methylquinazolin-4-yl)amino]ethyl}thiophen-2-yl)benzyl]carbamate], the IC50 in assay [4], in assay [1] (setting [8]) and in assay [2] (setting [9]) was over 20 µM in each case.

On to `COc1cc2nc(C)nc(NC(C)c3ccc(Br)o3)c2cc1OC` (stereo not drawn) [Example 208, N-[1-(5-bromofuran-2-yl)ethyl]-6,7-dimethoxy-2-methylquinazolin-4-amine], for which the IC50 is over 20 µM in assay [1] (setting [5]) and 5.97 µM in assay [3] (setting [7]). The inhibition (as a rule, the drop in the measured response relative to a control, in per cent) at 20 µM in assay [2] (read-out: Assay 3 (KRAS-Activation by SOS no GTP) activity expressed as % inhibition at 20 μM, no GTP, at 20 μM) is 47%.

Regarding `COC(=O)c1ccc2c(N[C@H](C)c3cccc(Cl)c3)nc(C)nc2c1` [Example 453, methyl 4-{[(1R)-1-(3-chlorophenyl)ethyl]amino}-2-methylquinazoline-7-carboxylate], the IC50 in assay [4], in assay [1] (setting [8]) and in assay [2] (setting [9]) was over 20 µM each time.

Turning to `COc1cc2nc(C)nc(NC(C)c3cccc4ncccc34)c2cc1OC` (stereo not drawn) [Example 212, 6,7-dimethoxy-2-methyl-N-[1-(quinolin-5-yl)ethyl]quinazolin-4-amine], the IC50 in assay [1] (setting [5]) was over 20 µM; in assay [2] (setting [6]) it was 2.64 µM; in assay [3] (setting [7]) it was 0.646 µM.

Turning to `Cc1nc(N[C@H](C)c2cccc(Cl)c2)c2ccc(Br)cc2n1` [Example 451, 7-bromo-N-[(1R)-1-(3-chlorophenyl)ethyl]-2-methylquinazolin-4-amine], the IC50 in assay [4], in assay [1] (setting [8]) and in assay [2] (setting [9]) was over 20 µM throughout.

Consider `COc1cc2nc(C)nc(NC(C)c3csc(C)n3)c2cc1OC` (stereo not drawn) [Example 444], for which the IC50 in assay [4], in assay [1] (setting [8]) and in assay [2] (setting [9]) was over 20 µM throughout.

`COc1cc2nc(C)nc(NC(C)c3ccc(-c4cc(C(=O)O)n(C)n4)s3)c2cc1OC` (stereo not drawn) [Example 446, 3-(5-{1-[(6,7-dimethoxy-2-methylquinazolin-4-yl)amino]ethyl}thiophen-2-yl)-1-methyl-1H-pyrazole-5-carboxylic acid]: the IC50 in assay [4], in assay [1] (setting [8]) and in assay [2] (setting [9]) was over 20 µM in each case.

Take `Cc1nc(NC(C)c2ccc(Br)s2)c2cc([N+](=O)[O-])ccc2n1` (stereo not drawn) [Example 452, N-[1-(5-bromothiophen-2-yl)ethyl]-2-methyl-6-nitroquinazolin-4-amine]: the IC50 in assay [4], in assay [1] (setting [8]) and in assay [2] (setting [9]) was over 20 µM throughout.

As to `COc1cc2nc(C)nc(NC(C)c3ccc(-c4cccc(Cl)c4CNC(=O)OC(C)(C)C)s3)c2cc1OC` (stereo not drawn) [Example 450, tert-butyl [2-chloro-6-(5-{1-[(6,7-dimethoxy-2-methylquinazolin-4-yl)amino]ethyl}-thiophen-2-yl)benzyl]carbamate], the IC50 in assay [4], in assay [1] (setting [8]) and in assay [2] (setting [9]) was over 20 µM throughout.
